Assay results: patent US20220257621A1, “CANCER CELL PROLIFERATION SUPPRESSION AGENT AND COMPOSITION FOR SUPPRESSING PROLIFERATION OF CANCER CELLS” (SHOWA DENKO K.K., priority 2019, published 2022)

What was measured:
[1] = test system: normal human epidermal keratinocytes (NHEK); assay: Effect (1) of suppressing ROS production induced by atmospheric dust (ROS assay kit, fluorescence); type: cell-based
Description: The effect of the inositol derivative on suppressing ROS production in normal human epidermal keratinocytes (NHEK, manufactured by KURABO INDUSTRIES LTD.) was measured under the following conditions. The NHEK cells were seeded in a HuMedia KG2 medium manufactured by KURABO INDUSTRIES LTD. at the seeding density of 10000 cells/cm^2, and cultured for 24 hours under the conditions of 37° C. and 5% CO2. Next, an aqueous solution of the inositol derivative or an aqueous solution of myo-inositol was added to the culture medium so that the final concentration of the inositol derivative or myo-inositol was 0.001% by mass, or water (pure water) was added to the culture medium, and culturing was further performed for 24 hours. Thereafter, 0.1 mL of a DMSO solution of atmospheric dust (NIST 1648a) was added per 100 mL of the culture medium so that the final concentration of the atmospheric dust in the culture medium was 500 μg/mL, and culturing was further performed for 48 hours in the same conditions as above. Thereafter, the ROS production amount was measured using a ROS assay kit (manufactured by OZ BIOSCIENCES). […] After washing the cells with PBS again, 100 μL of PBS was added, and the fluorescence intensity at an excitation wavelength of 485 nm/an absorption wavelength of 535 nm was measured with a microplate reader i-Control (manufactured by Tecan Group Ltd.). […]

CYP1B1 gene = assay: Suppression of CYP1B1 gene expression induced by atmospheric dust (quantitative real-time PCR); type: cell-based, human; settings: NHEK; sample 0.001% by mass 24 h, then atmospheric dust (NIST 1648a) 500 μg/mL 48 h; standardized to GAPDH; control without dust = 1; dust + water = 4.30
Description: (§1) The effect of the inositol derivative on suppressing the expression of a CYP1A1 gene and a CYP1B1 gene in normal human epidermal keratinocytes (NHEK, manufactured by KURABO INDUSTRIES LTD.) was measured under the following conditions.
(§2) The NHEK cells were seeded in a HuMedia KG2 medium manufactured by KURABO INDUSTRIES LTD. at the seeding density of 10000 cells/cm^2, and cultured for 24 hours under the conditions of 37° C. and 5% CO2. […] Using this cDNA as a template, the expression levels of the CYP1A1 gene and the CYP1B1 gene were quantitatively determined by quantitative real-time PCR using primers (QuantiTect Primer Assays, manufactured by QIAGEN) specific to the CYP1A1 gene and the CYP1B1 gene. As an internal standard gene, the expression level of a GAPDH gene, which is a housekeeping gene in which expression fluctuation due to the addition of atmospheric dust is not shown, was quantitatively determined (primer used: Perfect Real Time Primer, manufactured by Takara Bio Inc.), and the expression levels of the CYP1A1 gene and the CYP1B1 gene were standardized based on the expression level of GAPDH. […]

CYP1A1 gene = assay: Suppression of CYP1A1 gene expression induced by atmospheric dust (quantitative real-time PCR); type: cell-based, human; settings: NHEK; sample 0.001% by mass 24 h, then atmospheric dust (NIST 1648a) 500 μg/mL 48 h; standardized to GAPDH; control without dust = 1; dust + water = 4.11
Description: as §1, §2

O[C@H]1[C@H](O)[C@@H](O)[C@H](O)[C@@H](O)[C@H]1O [myo-Inositol, myo-inositol]
Effect of suppressing ROS production as compared to the water-added group ([1]; 0.001% by mass, atmospheric dust 500 μg/mL): not recognized | Relative ROS production amount ([1]; sample 0.001% by mass 24 h, then atmospheric dust 500 μg/mL 48 h, fluorescence relative to control without dust = 1, dust + water = 1.46): 1.83 | Relative gene expression level CYP1B1 (CYP1B1 gene): 1.08 | Relative gene expression level CYP1A1 (CYP1A1 gene): 3.10
